{"source": "patent US10822352B2", "about": "“Aryl, heteroaryl, and heterocyclic compounds for treatment of medical disorders” (Achillion Pharmaceuticals, Inc., priority 2015, dated 2020)", "target": "Human Factor D (Homo sapiens (Human), UniProt P00746)", "sequence (P00746 26-253)": "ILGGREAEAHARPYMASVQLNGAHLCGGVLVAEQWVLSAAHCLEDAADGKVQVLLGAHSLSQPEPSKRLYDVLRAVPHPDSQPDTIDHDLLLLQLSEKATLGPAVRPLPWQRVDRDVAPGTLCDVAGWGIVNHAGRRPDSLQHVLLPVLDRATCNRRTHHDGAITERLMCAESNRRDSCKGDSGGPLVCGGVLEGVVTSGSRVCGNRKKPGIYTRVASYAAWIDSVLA", "assay": "Human Factor D Assay", "assay_type": "biochemical", "description": "Human Factor D (purified from human serum, Complement Technology, Inc.) at 80 nM final concentration was incubated with test compound at various concentrations for 5 minutes at room temperature in 50 mM Tris, 1M NaCl, pH 7.5. A synthetic substrate Z-L-Lys-SBzl and DTNB (Ellman's reagent) are added to final concentrations of 100 μM each. […] IC50 values are calculated by nonlinear regression of complement Factor D reaction rates as a function of test compound concentration.", "key": {"[1]": {"settings": "Human Factor D 80 nM, substrate Z-L-Lys-SBzl, Table 3, read-out: IC5 (Stars)"}, "[2]": {"settings": "Human Factor D 80 nM, substrate Z-L-Lys-SBzl, star classes, read-out: IC50"}}, "note": "Like-named read-outs stand apart in the source and are kept apart here."}
{"smiles": "Cc1ncc(-c2ccc3c(c2)c([C@H](C)O)nn3CC(=O)N2[C@@H]3C[C@@H]3C[C@H]2C(=O)Nc2cccc(Br)n2)cn1", "note": "[Compound 409, (1R,3S,5R)—N-(6-Bromopyridin-2-yl)-2-(2-(3-((S)-1-hydroxyethyl)-5-(2-methylpyrimidin-5-yl)-1H-indazol-1-yl)acetyl)-2-azabicyclo[3.1.0]hexane-3-carboxamide]", "values": [{"measurement": "IC50", "setting": "[1]", "result": "< 1000", "unit": "nM"}]}
{"smiles": "CC(=O)c1nn(CC(=O)N2[C@H]3CC[C@H](CC3)[C@H]2C(=O)Nc2cccc(Br)n2)c2ccc(-c3cnc(C)nc3)cc12", "note": "[Compound 734, (1R,3S,4R)-2-(2-(3-Acetyl-5-(2-methylpyrimidin-5-yl)-1H-indazol-1-yl)acetyl)-N-(6-bromopyridin-2-yl)-2-azabicyclo[2.2.2]octane-3-carboxamide]", "values": [{"measurement": "IC50", "setting": "[2]", "result": "< 1000", "unit": "nM"}]}
{"smiles": "CC(=O)c1nn(CC(=O)N2C[C@H](F)C[C@@H]2C(=O)Nc2nc(Br)ccc2C(=O)O)c2ccc(-c3cnc(C)nc3)cc12", "note": "[Compound 648, 2-((2R,4R)-1-(2-(3-Acetyl-5-(2-methylpyrimidin-5-yl)-1H-indazol-1-yl)acetyl)-4-fluoropyrrolidine-2-carboxamido)-6-bromonicotinic acid]", "values": [{"measurement": "IC50", "result": "1000 to 10000", "unit": "nM"}]}
{"smiles": "Cc1cccc(NC(=O)[C@@H]2[C@H]3CC[C@H](C3)N2C(=O)Cn2cc(C(N)=O)c3cc(-c4n[nH]c5ccsc45)ccc32)n1", "note": "[Compound 704, 1-(2-((1R,3S,4S)-3-(6-Methylpyridin-2-ylcarbamoyl)-2-azabicyclo[2.2.1]heptan-2-yl)-2-oxoethyl)-5-(1H-thieno[3,2-c]pyrazol-3-yl)-1H-indole-3-carboxamide]", "values": [{"measurement": "IC50", "setting": "[2]", "result": "> 10000", "unit": "nM"}]}
{"smiles": "CC(=O)c1nn(CC(=O)N2C[C@H](F)C[C@H]2C(=O)NC2CCN(C(=O)c3cn[nH]c3)CC2)c2ccc(-c3cnc(C)nc3)cc12", "note": "[Compound 261, (2S,4R)-N-(1-(1H-pyrazole-4-carbonyl)piperidin-4-yl)-1-(2-(3-acetyl-5-(2-methylpyrimidin-5-yl)-1H-indazol-1-yl)acetyl)-4-fluoropyrrolidine-2-carboxamide]", "values": [{"measurement": "IC50", "setting": "read-out: IC50", "result": "< 1000", "unit": "nM"}]}
{"smiles": "Cc1cccc(C[C@H](O)[C@@H]2C[C@@H](F)CN2C(=O)Cn2cc(C(N)=O)c3cc(-c4cnc(C)nc4)ccc32)n1", "note": "[Compound 455, 1-(2-((2S,4R)-4-fluoro-2-((S)-1-hydroxy-2-(6-methylpyridin-2-yl)ethyl)pyrrolidin-1-yl)-2-oxoethyl)-5-(2-methylpyrimidin-5-yl)-1H-indole-3-carboxamide]", "values": [{"measurement": "IC50", "setting": "[1]", "result": "> 10000", "unit": "nM"}]}
{"smiles": "CC(=O)c1nn(CC(=O)N2C[C@H](F)C[C@H]2C(=O)Nc2cccc(Br)n2)c2ccc(-c3cnc(S(C)(=N)=O)nc3)cc12", "note": "(stereo partly drawn) [Compound 732, (2S,4R)-1-(2-(3-Acetyl-5-(2-(S-methylsulfonimidoyl)pyrimidin-5-yl)-1H-indazol-1-yl)acetyl)-N-(6-bromopyridin-2-yl)-4-fluoropyrrolidine-2-carboxamide]", "values": [{"measurement": "IC50", "setting": "[2]", "result": "< 1000", "unit": "nM"}]}
{"smiles": "CC(=O)c1nn(CC(=O)N2C[C@@H](C)C[C@H]2C(=O)Nc2nc(Br)ccc2C)c2ccc(-c3cnc(C)nc3)cc12", "note": "[Compound 643, (2S,4S)-1-(2-(3-Acetyl-5-(2-methylpyrimidin-5-yl)-1H-indazol-1-yl)acetyl)-N-(6-bromo-3-methylpyridin-2-yl)-4-methylpyrrolidine-2-carboxamide]", "values": [{"measurement": "IC50", "setting": "[2]", "result": "< 1000", "unit": "nM"}]}
{"smiles": "Cc1cccc(NC(=O)[C@@H]2[C@H]3CC[C@H](C3)N2C(=O)Cn2cc(C(N)=O)c3cc(-c4ccc(F)nc4)ccc32)n1", "note": "[Compound 500, 5-(6-Fluoropyridin-3-yl)-1-(2-((1R,3S,4S)-3-(6-methylpyridin-2-ylcarbamoyl)-2-azabicyclo[2.2.1]heptan-2-yl)-2-oxoethyl)-1H-indole-3-carboxamide]", "values": [{"measurement": "IC50", "setting": "[1]", "result": "> 10000", "unit": "nM"}]}
{"smiles": "NC(=O)c1nn(CC(=O)N2CCC[C@]2(F)C(=O)Nc2cccnc2)c2ccc(-c3ccnnc3)cc12", "note": "[Compound 47, 1-(2-((2S,4R)-2-fluoro-2-(pyridin-3-ylcarbamoyl)pyrroli-din-1-yl)-2-oxoethyl)-5-(pyridazin-4-yl)-1H-indazole-3-carboxamide]", "values": [{"measurement": "IC50", "setting": "Human Factor D 80 nM, substrate Z-L-Lys-SBzl, read-out: IC50", "result": "> 10000", "unit": "nM"}]}
{"smiles": "CC(=O)c1cn(CC(=O)N2C[C@H](F)C[C@H]2C(=O)NCc2ccncc2)c2ccc(-c3ccnnc3)cc12", "note": "[Compound 40, (2S,4R)-1-(2-(3-acetyl-5-(pyridazin-4-yl)-1H-indol-1-yl)acetyl)-4-fluoro-N-(pyridin-4-ylmethyl)pyrrolidine-2-carboxamide]", "values": [{"measurement": "IC50", "result": "1000 to 10000", "unit": "nM"}]}
{"smiles": "COc1ccc(N2C[C@@H]3CC[C@H]2C=C3c2ccc3c(c2)c(C(C)=O)nn3CC(=O)N2C[C@H](F)C[C@H]2C(=O)Nc2cccc(Br)n2)cc1", "note": "[Compound 721, (2S,4R)-1-(2-(3-Acetyl-5-((1S,4R)-2-(4-methoxyphenyl)-2-azabicyclo[2.2.2]oct-5-en-5-yl)-1H-indazol-1-yl)acetyl)-N-(6-bromopyridin-2-yl)-4-fluoropyrrolidine-2-carboxamide]", "values": [{"measurement": "IC50", "setting": "[2]", "result": "< 1000", "unit": "nM"}]}
{"smiles": "CC(=O)c1nn(CC(=O)N2C[C@H](F)C[C@H]2C(=O)Nc2cccc(Br)n2)c2ccc(-c3nc4c(s3)CCCC4)cc12", "note": "[Compound 297]", "values": [{"measurement": "IC50", "setting": "Human Factor D, assay of Example 8, read-out: IC50", "result": "< 1000", "unit": "nM"}]}
